Assay results as given in publication PMC6934184, “Selective DNA-PKcs inhibition extends the therapeutic index of localized radiotherapy and chemotherapy” (The Journal of Clinical Investigation, 2019).

Target: T1, IRAK4 (Homo sapiens, UniProt Q9NWZ3)
T1 construct: purchased Thermo Fisher Scientific (Life Technologies) SelectScreen
Experiment: SelectScreen Z'LYTE
Format: biochemical
In short: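 NU5455 was profiled across the SelectScreen Broad panel of kinase activity and binding assays. Z'LYTE reactions such as CSF1R ran at apparent Km ATP, while the Adapta CAMK1 assay used ATP listed as 10. Values are given as percent.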

T1 sequence (Q9NWZ3 whole entry): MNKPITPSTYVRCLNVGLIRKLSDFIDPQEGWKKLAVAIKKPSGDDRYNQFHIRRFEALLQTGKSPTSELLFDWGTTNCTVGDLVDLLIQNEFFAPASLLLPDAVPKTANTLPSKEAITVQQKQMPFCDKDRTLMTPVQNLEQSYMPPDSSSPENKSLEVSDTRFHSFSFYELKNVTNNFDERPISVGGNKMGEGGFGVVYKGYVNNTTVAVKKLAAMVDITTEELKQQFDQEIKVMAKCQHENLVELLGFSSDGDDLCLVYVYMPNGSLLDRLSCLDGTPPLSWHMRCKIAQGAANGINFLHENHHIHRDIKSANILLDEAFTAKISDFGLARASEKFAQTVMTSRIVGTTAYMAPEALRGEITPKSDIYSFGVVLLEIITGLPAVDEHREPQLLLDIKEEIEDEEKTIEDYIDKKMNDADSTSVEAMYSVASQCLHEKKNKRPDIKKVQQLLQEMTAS

CN(C(=O)CN1CCOCC1)c1ccc2sc3c(-c4cccc5c(=O)cc(N6CC7CCC(C6)O7)oc45)cccc3c2c1 [NU5455]
inhibition at 1 µM: -20.5%
